Source: patent publication US4367226A, “N-Sugar compounds, compositions and uses thereof” (priority 1980, dated 1983)
In brackets after ≈: the same amount, converted by molar mass.

Columns and labels:
Escherichia coli = assay: Broth dilution MIC / antimicrobial test against Escherichia coli (A.T.C.C. 11229); format: cell-based; conditions: 37°
Excerpt: (§1) In testing for the anti-microbial activity five different types of organics were selected: Staphyloccoccus aureus, Escherichia coli, Pseudomonas aeruginosa, Candida albicans, and Aspergillus niger. The inclusion of Asperigillus niger and Pseudomonas aeruginosa in the inocula is recommended to ensure a wide range of protection because these ubiquitous organisms grow in a large variety of formulations and relatively resistant to antimicrobial agents. The incidence of contaminated cosmetics has been the subject of several investigations ^(6)(7). Pseudomonas was the predominant organism found.
(§2) One Gram-positive, two Gram-negative bacteria, one each of a yeast and a mold were selected for the test. These were, respectively, Staphylococcus aureus(A.T.C.C. 6538), Escherichia coli(A.T.C.C. 11229), Pseudomonas aeruginosa(A.T.C.C. 15442), Candida albicans(A.T.C.C. 10259), and Aspergillus niger(A.T.C.C. 1015).
(§3) Portions of four or five discrete colonies representative of the organisms to be tested were inoculated into 10.0 ml. of a suitable broth medium and marked accordingly. The inoculated tubes were incubated at 37° for S. aureus, E. coli, and P. aeruginosa, and at 25° for C. albicans and A. niger for 18-24 hours.
(§4) Medium: Trypticase Soy Agar(BBL) was used for bacteria, and Sabouraud Maltose Agar(BBL) for the yeast and the mold.
(§5) Inoculation of agar plates and incubation: A 10 cm. round plastic plate was used for the preparation of medium. Each plate was divided into four areas by marking on the bottom of the plate. The agar plate was streaked by the appropriate inoculation loop. Three thin loopful of inocula were applied for covering the complete agar plate. Approximately 10-15 mg. of compound to be tested was placed at the corresponding area of each inoculated plate. The plates inoculated with S. aureus, E. coli, and P. aeruginosa were incubated at 37° for 24-48 hours, and those incubated with C. albicans and A. niger were incubated at 25° for 48-72 hours. […]

Pseudomonas aeruginosa = assay: Broth dilution MIC / antimicrobial test against Pseudomonas aeruginosa (A.T.C.C. 15442); format: cell-based; conditions: 37°
Excerpt: as §1, §2, §3, §4, §5

Candida albicans = assay: Broth dilution MIC / antimicrobial test against Candida albicans (A.T.C.C. 10259); format: cell-based; conditions: 25°
Excerpt: as §1, §2, §3, §4, §5

Aspergillus niger = assay: Broth dilution MIC / antimicrobial test against Aspergillus niger (A.T.C.C. 1015); format: cell-based; conditions: 25°
Excerpt: as §1, §2, §3
Medium: Trypticase Soy Agar(BBL) was used for bacteria, and Sabouraud Maltose Agar(BBL) for the yeast and the mold. […]

Staphylococcus aureus = assay: Broth dilution MIC / antimicrobial test against Staphylococcus aureus (A.T.C.C. 6538); format: cell-based; conditions: for activity against S. aureus (in words): 37°
Excerpt: as §1, §2, §3, §4
Inoculation of agar plates and incubation: A 10 cm. round plastic plate was used for the preparation of medium. Each plate was divided into four areas by marking on the bottom of the plate. The agar plate was streaked by the appropriate inoculation loop. Three thin loopful of inocula were applied for covering the complete agar plate. Approximately 10-15 mg. of compound to be tested was placed at the corresponding area of each inoculated plate. The plates inoculated with S. aureus, E. coli, and P. aeruginosa were incubated at 37° for 24-48 hours, and those incubated with C. albicans and A. niger were incubated at 25° for 48-72 hours.
Interpretation and result: After incubation, if a zone of inhibition was visible around the compound placed, the susceptibility of the organism to the compound was considered to be positive. The degree of positiveness of the compound was decided by the size of the zone.
The broth dilution method was chosen for the determination of the MIC. A 10^-1 molar stock solution was prepared by dissolving or suspending the required amount of compound in the sterilized distilled water. The desired number of sterile test tubes were aseptically filled with 9.0 ml. of Trypticase Soy Broth(BBL). 1.0 ml. of the stock solution was added to the first tube and mixed thoroughly. With a sterile pipette, 1.0 ml. was transferred from the first tube to the second tube. […]

bacterial growth = assay: Preservative action in cosmetic formulations; conditions: for preservation against bacterial combination: Examples I and III of U.S. Pat. No. 3,957,970, replacing the 0.05% preservative by an equal amount
Excerpt: The compositions of this invention are of particular utility in aqueous cosmetic formulations to inhibit bacterial growth. Reference is hereby made to cosmetic formulations as disclosed in the following U.S. Pat. Nos.: (1) 4,159,318 (2) 4,164,564, (3) 4,137,302, (4) 4,148,875, (5) 4,001,141, (6) 4,048,338, (7) 3,919,430 and (8) 3,957,970 as exemplary of formulations with which the present thioureas and thiazoles can be used; thus, Example 4 of U.S. Pat. No. 4,137,302 discloses ethyl p-dimethylaminobenzoate (0.75%).
In Example 6 of U.S. Pat. No. 4,048,338, the 0.18 parts of methyl p-hydroxybenzoate is replaced by equal parts of the compound of Example 10 on the one hand and that of Example 12 on the other hand.
Each of the foregoing U.S. Patents (1) to (8) is hereby incorporated by reference thereto.

[1] = LD50 test (acute toxicity, intraperitoneal); format: in vivo, Charles River CD-1 male mice; conditions: 2000 mg/kg, one mouse
Protocol: The toxicity of some of the compounds was ascertained in an LD50 test.
The LD50 tests were performed for the following compounds; N-β-D-glucopyranosyl-N'-n-butylthiourea, N-β-D-glucopyranosyl-N'-benzylthiourea, N-β-D-glucopyranosyl-piperidine-1-thiocarboxamide, N-β-D-glucopyranosylthiourea, and ethyl 2-(N-β-D-glucopyranosyl)aminothiazole-4-carboxylate. The compounds were administered intraperitoneally dissolved or suspended in normal saline by 20-25 gm Charles River CD-1 male mice.
Two animals received 1000 mg/kg and one animal received 2000 mg/kg. With the exception of the animal given by ethyl 2-(N-β-D-glucopyranosyl)aminothiazole-4-carboxylate at 2000 mg/kg, all animals survived the acute effects and appeared normal after 1 week.

[2] = Example 6 of U.S. Pat. No. 4,048,338, replacing 0.18 parts of methyl p-hydroxybenzoate by equal parts

Row | SMILES | activity against E. coli (in words) (Escherichia coli) | activity against P. aeruginosa (in words) (Pseudomonas aeruginosa) | activity against C. albicans (in words) (Candida albicans) | activity against A. niger (in words) (Aspergillus niger) | activity against S. aureus (in words) (Staphylococcus aureus) | MIC (Staphylococcus aureus; Staphylococcus aureus, S. aureus A.T.C.C. 6538, broth dilution, 24-48 hours at 37°, read-out: M.I.C. (Minimal Inhibitory Concentration)) [µM] | preservative action (bacterial growth; Example 4 of U.S. Pat. No. 4,137,302, in lieu of ethyl p-dimethylaminobenzoate (0.75%)) | preservative action (bacterial growth; [2]) | preservation against bacterial combination (bacterial growth) | death [1]
1 | OC[C@H]1O[C@@H](NC(=S)NCc2ccccc2)[C@H](O)[C@@H](O)[C@@H]1O [Example 5, N-β-D-Glucopyranosyl-N'-benzylthiourea] | particularly outstanding activity | particularly outstanding activity |  |  |  |  |  |  |  | 
2 | OC[C@H]1O[C@@H](NC(=S)N2CCCCC2)[C@H](O)[C@@H](O)[C@@H]1O [Example 11, N-β-D-Glucopyranosylpiperidine-1-thiocarboxamide] |  | particularly outstanding activity |  |  |  |  |  |  |  | 
3 | CCCCNC(=S)N[C@@H]1O[C@H](CO)[C@@H](O)[C@H](O)[C@H]1O [Example 2, N-β-D-Glucopyranosyl-N'-n-butylthiourea] |  |  | particularly outstanding activity | particularly outstanding activity |  |  |  |  |  | 
4 | C=CCNC(=S)N[C@@H]1O[C@H](CO)[C@@H](O)[C@H](O)[C@H]1O [Example 10, N-β-D-Glucopyranosyl-N'-allylthiourea] |  |  |  |  | particularly outstanding activity | 100 (≈ 27.8 µg/mL) | excellent preservative action | excellent preservative action | excellent preservation against bacterial combination | 
5 | OC[C@H]1O[C@@H](NC(=S)NCc2ccc(Cl)cc2)[C@H](O)[C@@H](O)[C@@H]1O [Example 12, N-β-D-Glucopyranosyl-N'-4-chlorobenzylthiourea] | broad inhibitory activities |  | broad inhibitory activities |  | broad inhibitory activities |  |  | excellent preservative action | excellent preservation against bacterial combination | 
6 | Br.CCOC(=O)c1csc(N[C@@H]2O[C@H](CO)[C@@H](O)[C@H](O)[C@H]2O)n1 [Example 15, Ethyl 2-(N-β-D-glucopyranosyl)aminothiazole-4-carboxylate hydrobromide] | broad activities against 4 organisms | broad activities against 4 organisms | broad activities against 4 organisms | not against A. Niger | broad activities against 4 organisms |  |  |  | excellent preservation against bacterial combination | dying two days later
